The CheMixHub ionic liquid set

Experiment: xn = mol fraction of the nth substance listed
Details: 100 kPa

CCCCCCCC[n+]1ccccc1.[Br-] + CC(C)C[C@H](NC(=O)CN)C(=O)O + O
electrical conductivity [S/m]
Details	288.15 K	293.15 K	298.15 K
x2 = 0.0008948, x1 = 0.005954	–	–	1.49
x2 = 0.0008948, x1 = 0.005956	–	1.31	–
x2 = 0.0008948, x1 = 0.005958	1.18	–	–
x2 = 0.0008949, x1 = 0.005843	–	1.3	1.48
x2 = 0.0008949, x1 = 0.005845	1.16	–	–
x2 = 0.0008952, x1 = 0.005554	–	1.27	1.44
x2 = 0.0008952, x1 = 0.005555	1.12	–	–
x2 = 0.0008955, x1 = 0.005221	–	–	1.38
x2 = 0.0008955, x1 = 0.005223	1.08	1.22	–
x2 = 0.0008958, x1 = 0.004872	–	–	1.34
x2 = 0.0008958, x1 = 0.004874	1.04	1.17	–
x2 = 0.0008961, x1 = 0.004508	–	1.12	1.29
x2 = 0.0008961, x1 = 0.00451	0.998	–	–
x2 = 0.0008965, x1 = 0.004089	–	1.06	1.21
x2 = 0.0008965, x1 = 0.00409	0.947	–	–
x2 = 0.0008969, x1 = 0.003623	–	0.983	1.12
x2 = 0.0008969, x1 = 0.003625	0.867	–	–
x2 = 0.0008973, x1 = 0.003174	0.789	0.894	1.02
x2 = 0.0008978, x1 = 0.002616	0.679	0.781	0.883
x2 = 0.0008984, x1 = 0.002001	0.558	0.632	0.72
x2 = 0.0008987, x1 = 0.001608	0.469	0.526	0.604
x2 = 0.0008991, x1 = 0.001214	0.381	0.427	–
x2 = 0.0008996, x1 = 0.0007137	0.253	0.283	–
x2 = 0.001788, x1 = 0.005807	–	1.28	–
x2 = 0.001788, x1 = 0.005808	1.12	–	–
x2 = 0.001789, x1 = 0.005198	–	1.19	–
x2 = 0.001789, x1 = 0.005199	1.05	–	–
x2 = 0.001789, x1 = 0.005513	–	1.24	–
x2 = 0.001789, x1 = 0.005515	1.09	–	–
x2 = 0.00179, x1 = 0.004869	–	1.14	–
x2 = 0.00179, x1 = 0.004871	1.01	–	–
x2 = 0.001791, x1 = 0.00409	0.911	1.04	–
x2 = 0.001791, x1 = 0.004503	0.962	1.1	–
x2 = 0.001792, x1 = 0.003637	–	0.959	–
x2 = 0.001792, x1 = 0.003639	0.855	–	–
x2 = 0.001793, x1 = 0.003149	0.766	0.869	–
x2 = 0.001794, x1 = 0.002603	0.666	0.756	–
x2 = 0.001795, x1 = 0.002003	0.545	0.615	–
x2 = 0.001796, x1 = 0.001632	0.462	0.523	–
x2 = 0.001797, x1 = 0.0008258	0.273	0.306	–
x2 = 0.001797, x1 = 0.001246	0.37	0.419	–
